In patent US20240293358A1, “COMPOSITION COMPRISING PPAR-MODULATOR AND AN UROLITHIN DERIVATIVE AND USES THEREOF” (Universite de Bordeaux, priority 0001, published 2024):

Tested on: Costello (CS) zebrafish injected with HRASV12 plasmid
Assay: Phenotype analysis (survival, developmental defects) of Costello zebrafish embryos
Assay type: in vivo, Zebrafish (Danio rerio)
Conditions: HRASG12V-embryos; for survival rate: single agent 20 μM by bathing 1 dpf to 5 dpf, 4 days of treatment; for number of defective individuals among alive embryo: single agent 20 μM, vehicle (DMSO) 60%
Description: Zebrafish (Danio rerio) embryos were obtained from natural spawnings and raised in embryo medium (E3) (97) at 28.5° C. Embryos were staged as described previously [46]. Starting 5 days post-fertilisation (dpf), embryos were fed daily. […] 1 nl of 12.5 ng/μl of GFP-H-RASV12 plasmid and 12.5 ng/μl of T2 transposase mRNA were co-injected in the first cell of zebrafish eggs. Control embryos were injected with the same volume of PBS. H-RASV12 was expressed in zebrafish embryo under heat shock, 30 mn at 37° C. at 1 day post fertilization (dpf) and embryo expressing GFP at 2 dpf were selected for the study.
The embryo injected with the HRASV12 plasmid were treated daily by bathing from 1 dpf to 5 dpf with respectively 20 μM bezafibrate, 20 μM urolithin A, 20 μM bezafibrate+20 μM urolithin A, 10 μM bezafibrate+5 μM urolithin A, 5 μM bezafibrate+5 μM urolithin A. Control embryos were treated with the same volume of DMSO corresponding to 0.2% of DMSO. The imaging and phenotype analysis of mortality and defects of appearance after plasmid injection were performed on alive embryo anesthetized using ethyl 3-aminobenzoate methanesulfonate, MS-222 (Sigma, Cat. #A-5040) at 200 mg/L at 2 days post fertilization, 3 dpf, 4 dpf and 5 dpf using a ZEISS axiocam stereomicroscope (ZEISS, Germany).
Embryos injected with HRASV12 plasmid were selected at 2 days post fertilization (dpf) following their GFP^+/+ expression. HRASV12 plasmid was activated under a heat shock of embryos at 37° C. for 30 minutes. Embryos were observed daily from 2 dpf to 5 dpf in order to analyze the effect of HRASV12 overexpression on their physiological development (FIG. 1A, 1B).

Structure (SMILES)	survival rate	number of defective individuals among alive embryo
CC(C)(Oc1ccc(CCNC(=O)c2ccc(Cl)cc2)cc1)C(=O)O [bezafibrate, 2-(4-{2-[(4-chlorobenzoyl)amino]ethyl}phenoxy)-2-methylpropanoic acid]	up to 70%	45%
O=c1oc2cc(O)ccc2c2ccc(O)cc12 [urolithin A]	≤ 65%	43%
